Results on 50 compounds are retold here after ChEMBL document CHEMBL1201862, “PubChem BioAssay data set” (2004).

Test systems include BT-549; DLD-1; KM-20L2; XF498; HOP-18; M19-MEL; LXFL 529; SNB-78.
Experiment in all cases: NCI anticancer screen, dose series, 48 h

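Growth conditions: 96-well plates. Treatment: test compound, 48 hours, 5 concentrations. Analysis: linear interpolation between bracketing concentrations; unreached endpoints set to highest concentration. Here, GI50 denotes the concentration required for 50% inhibition of growth.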 Calls of active or inactive are those of the source. Rule as the data show it: active = GI50 up to about 1.1 µM and inactive = higher.

For the compound `Cc1cc(S(=O)(=O)Nc2nc3ccccc3nc2-c2cccc([N+](=O)[O-])c2)c(S)cc1Cl`, the GI50 in the assay on BT-549 was 38.7 µM (inactive).

In the case of `COc1c2occc2c(N)c2ccc(=O)oc12`, in the assay on BT-549, the GI50 was > 100 µM (inactive). Turning to `NCOC(=O)Cc1ccc(Br)cc1`, the GI50 in the assay on BT-549 was > 100 µM (inactive). With `Cc1ccc(C)c(C2NC(=O)c3ccccc3N2)c1` (stereo not drawn), in the assay on BT-549, the GI50 is 5.25 µM (inactive).

With `C#CCCCCC#CC1CCCC1C1=CC(=O)c2ccccc21` (stereo not drawn), the GI50 was 8.71 µM (inactive) in the assay on DLD-1, 10.3 µM (inactive) in the assay with KM-20L2, 8.36 µM (inactive) in the assay on XF498 and 12.5 µM (inactive) in the assay on HOP-18. In the case of `COC1OC2COC(c3ccccc3)OC2C(O)C1OC(=S)c1ccccc1` (stereo not drawn), the GI50 in the assay on BT-549 is 53.1 µM (inactive). On the same count and under the same terms, the result for `C/C(=C1/N=C(c2ccccc2)OC1=O)c1ccccc1` reads > 100 µM (inactive); that for `C=CCOC(=O)C1=C(CCC[C@@H](C)O[Si](C)(C)C(C)(C)C)N=C(N)N2[C@H](CCO)CC[C@@H]12`, 21.8 µM (inactive). `CC(C)=CC[S+]([O-])c1ccccc1NC1=CC(=O)CC(C)(C)C1` (stereo not drawn): the GI50 with BT-549 is > 100 µM (inactive).

On to `O=c1oc2ccc(Cl)cc2cc1-c1cn2cc(Cl)ccc2n1`, for which the GI50 in the assay with BT-549 is 15.1 µM (inactive). On the same count and under the same terms, the same measure for `COc1ccc2nc3cccc([N+](=O)[O-])c3c(NCCO)c2c1`: 0.00565 µM (active); for `O=C1NC2(CCNCC2)Oc2ccccc21`: > 100 µM (inactive); for `COc1ccc2c(c1)c1c(n2CCN2CCOCC2)-c2ccccc2CC1`: > 100 µM (inactive). For the compound `Cc1nc(O)nc(N/N=C/c2ccc(Cl)cc2)c1C(=O)NC(C)(CO)CO`, the GI50 in the assay with BT-549 was > 100 µM (inactive). `CCCCc1c2c(nc3c1CCCC3=O)CCCC2`: the GI50 with M19-MEL is > 100 µM (inactive); in the assay on LXFL 529, > 100 µM (inactive); in the assay on KM-20L2, 20 µM (inactive); in the assay on XF498, > 100 µM (inactive).

On to `CCN(CC)CCCNc1n[n+]([O-])c2ccccc2[n+]1[O-]`, for which the GI50 in the assay with BT-549 was 17.3 µM (inactive).

Turning to `Nc1nc(N)c2ncn(Cc3ccccc3CO)c2n1`, the GI50 with BT-549 is > 100 µM (inactive). In the case of `COc1cc(Nc2cnc3cc(F)c(F)cc3n2)cc(OC)c1OC`, the GI50 with BT-549 was > 100 µM (inactive).

For `CC(=O)OC(OC(C)=O)c1c2ccccc2cc2ccccc12`, the GI50 in the assay on BT-549 was 14.9 µM (inactive). The same measure, in the same setting: the same measure for `Cn1c(=O)n2c(-c3ccccc3)c(-c3ccccc3)n2c1=O`: > 100 µM (inactive); for `CCOC(=O)/C(C(=O)Nc1ccc(Cl)cc1)=C(/N)N1CCOCC1`: > 100 µM (inactive); for `O=C(OC1C#CCSCC#C/C=C\1)c1ccc2c(c1)C(=O)c1ccccc1C2=O` (stereo not drawn): 22.6 µM (inactive). For the compound `CC(=O)Nc1ccccc1S(=O)(=O)c1c(-c2c(C)c(Cl)c(C)c(Cl)c2C)noc1C`, the GI50 in the assay with BT-549 is 33.9 µM (inactive). Still for that read-out and setting: the same measure for `CC(Cc1ccc(Cl)cc1Cl)NO` (stereo not drawn): > 100 µM (inactive). On the same count and under the same terms, the same measure for `CC1OC(O)CC(N(C)C)C1O.CC1OC(O)CCC1O.CCC1CC(O)c2c(O)c3c(c(O)c2C1O)C(=O)c1cccc(O)c1C3=O` (stereo not drawn): 0.0448 µM (active); for `O=C1CCCCc2cccc(O)c21`: > 100 µM (inactive). The same measure, in the same setting: the same measure for `CC(=O)OCC1(CNc2nc(N)ncc2C#N)CC(CCc2ccccc2)C1` (stereo not drawn): 87.1 µM (inactive).

In the case of `CC(=O)N(C(C)=O)n1c(Cc2ccc(C)cc2)nn(C(C)=O)c1=O`, the GI50 in the assay on BT-549 is > 100 µM (inactive). In the case of `CCOC(=O)c1ccc(/N=C2\SC(=S)N(c3ccc(F)cc3)\C2=N/c2ccc(C(=O)OCC)cc2)cc1`, the GI50 with BT-549 was 12.6 µM (inactive). On to `COC(=O)C12CC(c3ccccc31)C1C(=O)OC(=O)C12` (stereo not drawn), for which the GI50 in the assay with M19-MEL, in the assay on DLD-1, in the assay on LXFL 529, in the assay on KM-20L2, in the assay with XF498 and in the assay on SNB-78 was > 100 µM (inactive) throughout. In the case of `CC1CC2=C(C1)C(C1(C)C(=O)CC3C(C1=O)C3(C)C)C(C)C2=O` (stereo not drawn), the GI50 with BT-549 was > 100 µM (inactive). As for `COc1cc(Nc2cc(Cl)cc(Cl)c2)nc(N)n1`, in the assay on BT-549, the GI50 was 17.1 µM (inactive). The same measure, in the same setting: the result for `O=C(O)c1c(CC(Cc2ccc3c(c2)CCC3)C(=O)O)ccc2c1CCC2` (stereo not drawn) reads > 100 µM (inactive); that for `CC1=C(Br)C(=O)c2c(O)ccc(O)c2C1=O`, 0.71 µM (active). On to `Cc1cccc(C)c1NC(=O)CCC(=O)NC(N)=S`, for which the GI50 in the assay with M19-MEL, in the assay on DLD-1, in the assay with LXFL 529, with KM-20L2 and with HOP-18 was > 100 µM (inactive) throughout. Consider `O=C(CSSCC(=O)Nc1ccc(Br)cc1)Nc1ccc(Br)cc1`, for which the GI50 was 18.5 µM (inactive) in the assay with M19-MEL; 18.1 µM (inactive) with DLD-1; 16 µM (inactive) with LXFL 529; 15.1 µM (inactive) with KM-20L2; 20.1 µM (inactive) in the assay with XF498; 15.1 µM (inactive) with SNB-78. `Cc1cc(C)n(CCNCCn2nc(C)cc2C)n1`: the GI50 in the assay with M19-MEL, with DLD-1, in the assay with LXFL 529, in the assay on KM-20L2 and in the assay with SNB-78 was > 100 µM (inactive) each time. With `CC(=O)c1ccc(NC(=O)C(=O)C(C#N)CC(C)(C)C=O)cc1` (stereo not drawn), the GI50 in the assay with M19-MEL, in the assay with LXFL 529, in the assay with KM-20L2, in the assay with XF498 and in the assay on SNB-78 was > 100 µM (inactive) throughout. For the compound `O=C1N/C(=N/N=C/C(O)C(O)C(O)CO)N/C1=C\c1ccco1` (stereo not drawn), in the assay on BT-549, the GI50 is > 100 µM (inactive). On the same count and under the same terms, the same measure for `COc1ccc(C(SCCO)(c2ccc(OC)cc2)c2ccc(OC)cc2)cc1`: 16.1 µM (inactive); for `CCOC(=O)NNC(=O)NCc1cccc(CNC(=O)NNC(=O)OCC)c1`: > 100 µM (inactive). The same measure, in the same setting: the result for `CC1=C(C(=O)Nc2ccccc2)C2(CCCCC2)C(C#N)=C(SCC(=O)Nc2ccc(Br)cc2)N1` reads 8.15 µM (inactive); that for `O=C1C(C(O)(C(F)(F)Cl)C(F)(F)Cl)CCCC1C(O)(C(F)(F)Cl)C(F)(F)Cl` (stereo not drawn), > 10 µM (inactive).

On to `COP(=O)(Cc1ccccc1)Cc1ccccc1`, for which the GI50 in the assay on BT-549 is > 100 µM (inactive). Still for that read-out and setting: the result for `CC(C)(C)OC(=O)NC(Cc1ccc([N+](=O)[O-])cc1)C(=O)NC(CCCCNC(=O)OCc1ccccc1)C(=O)ON1C(=O)CCC1=O` (stereo not drawn) reads > 100 µM (inactive); that for `NCCCN(CCCCN(CCCN)C(=O)OCc1ccccc1)C(=O)OCc1ccccc1`, > 100 µM (inactive); that for `COc1cc(CC(C)NC(C)=O)cc(OC)c1` (stereo not drawn), > 100 µM (inactive).

As for `Brc1ccc(/N=N/N2CCCCC2)cc1`, in the assay on BT-549, the GI50 is 98.2 µM (inactive). For the compound `Cc1c(-c2ccc(-c3ccccc3F)cc2)nc2ccc(F)cc2c1C(=O)O` [BREQUINAR SODIUM], the GI50 with M19-MEL was 1.2 µM (inactive); in the assay on BT-549 it was 155 µM (inactive); in the assay on DLD-1, 0.0875 µM (active); with KM-20L2, 0.615 µM (active); in the assay with XF498, 18.1 µM (inactive); in the assay with HOP-18 it was 46.1 µM (inactive).

Take `CC1=CC(=O)c2ccc(C)cc2C1=O` [CHIMAPHILIN]: the GI50 in the assay with BT-549 is 11.6 µM (inactive).
